Test results from US20040138272A1, “1,4-Substituted cyclohexane derivatives” (priority 2002, published 2004).
“Also recorded” adds a separate entry of the source.

How the values were obtained:
[1] = tested on: retinal ganglion cell axons; assay: Axon regeneration after optic nerve crush, intravitreal injection; assay type: in vivo, rat; settings: adult rats, two weeks after crush
Method: To examine the ability of BA-1016 to promote axon regeneration in vivo, the regeneration of retinal ganglion cell axons was examined in the optic nerve after intravitrial injection of BA-1016. In these experiments, BA-1016 was injected at in the vitreous of rats immediately after optic nerve crush that transects all of the retinal ganglion cell (RGC) axons (Lehmann et al, IBID). Two weeks later the animals cholera toxin B subunit was injected in the eye to anterogradelty label the regenerating RGC axons. The next day the animals were killed perfused with saline, and the optic nerves removed for sectioning. Longitudinal sections of the optic nerve were reacted for anti-cholera toxin immunoreactivity to observe the anterogradely labeled fibers.
Rats were anesthetized with isoflorane (2.4%) and the head shaved. […] Retinal ganglion cell axons were labeled by CTB were detected by immunohistochemistry for CTB using a goat anti-choleragenoid (List Biological Labs.), a biotinylated rabbit anti-goat (Vector Labs., Burlingame, Calif.) and DTAF-conjugated streptavidin (Jackson Labs., West Grove, Pa.) as described previously (Lehmann et al IBID)

[2] = target: T1, human Rho kinase II (ROCK-II (h)) (Homo sapiens, UniProt O75116); assay: Commercial inhibition assay with recombinant human ROCKII, IC50 curves (FIGS. 8, 9); assay type: biochemical
T1 construct: purchased
Text: Referring to FIGS. 8 and 9 inhibiton of ROCKII activity and determination of IC50 may also be done throught the use of known (i.e. commercial) inhibition assays that use recombinant human ROCKII.

ROCK II = target: T2, ROCK II (Rattus norvegicus, UniProt Q62868); assay: ROCK II kinase assay with [γ-32P] ATP and myelin basic protein substrate (FIG. 3); assay type: biochemical; settings: 100 μM ATP, 30 min at 30° C.
T2 construct: purchased Upstate (Lake Placid, N.Y.)
Text: The ability of compounds to inhibit ROK activity may be tested in a cell-free assay system using recombinant ROK, radiaoactive ATP, and Myelin basic Protein (MBP). MBP is a highly phosphorylated protein, is inexpensive to buy in purified form, is phosphorylated by ROK, and is used as the assay substrate for phosphorylation. Recombinant ROK has been prepared from a number of sources. Overexpression in mammalian cells provides a convenient, easily renewed source of ROK activity. Measurement of Rho-associated kinase (ROK) activity is important to determine the potency of novel inhibitors. MBP is a substrate for ROK and a number of other protein kinases, making it useful both to quantitate ROK activity and to indicate the potency and specificity of novel inhibitors for ROK. […]
ROCK II was assayed in 20 mM MOPS, pH 7.2, 25 mM β-glycerophosphate, 5 mM EGTA, 1 mM sodium orthovanadate, 1 mM dithiothreitol with dephosphorylated myelin basic protein (MBP, 0.2 mg/ml) as substrate with or without BA-1016 or BA-1017. […] Assays were initiated by adding Mg^2+/ATP and terminated by spotting 40 μl of each reaction onto phosphocellulose paper (P81 paper, Whatman), followed by washes in 0.75% phosphoric acid to remove ATP and then dried, put in scintillation cocktail and counted to measure ^32P incorporation. Radioactivity is measured using a scintillation counter. […]

T1 sequence (O75116 whole entry): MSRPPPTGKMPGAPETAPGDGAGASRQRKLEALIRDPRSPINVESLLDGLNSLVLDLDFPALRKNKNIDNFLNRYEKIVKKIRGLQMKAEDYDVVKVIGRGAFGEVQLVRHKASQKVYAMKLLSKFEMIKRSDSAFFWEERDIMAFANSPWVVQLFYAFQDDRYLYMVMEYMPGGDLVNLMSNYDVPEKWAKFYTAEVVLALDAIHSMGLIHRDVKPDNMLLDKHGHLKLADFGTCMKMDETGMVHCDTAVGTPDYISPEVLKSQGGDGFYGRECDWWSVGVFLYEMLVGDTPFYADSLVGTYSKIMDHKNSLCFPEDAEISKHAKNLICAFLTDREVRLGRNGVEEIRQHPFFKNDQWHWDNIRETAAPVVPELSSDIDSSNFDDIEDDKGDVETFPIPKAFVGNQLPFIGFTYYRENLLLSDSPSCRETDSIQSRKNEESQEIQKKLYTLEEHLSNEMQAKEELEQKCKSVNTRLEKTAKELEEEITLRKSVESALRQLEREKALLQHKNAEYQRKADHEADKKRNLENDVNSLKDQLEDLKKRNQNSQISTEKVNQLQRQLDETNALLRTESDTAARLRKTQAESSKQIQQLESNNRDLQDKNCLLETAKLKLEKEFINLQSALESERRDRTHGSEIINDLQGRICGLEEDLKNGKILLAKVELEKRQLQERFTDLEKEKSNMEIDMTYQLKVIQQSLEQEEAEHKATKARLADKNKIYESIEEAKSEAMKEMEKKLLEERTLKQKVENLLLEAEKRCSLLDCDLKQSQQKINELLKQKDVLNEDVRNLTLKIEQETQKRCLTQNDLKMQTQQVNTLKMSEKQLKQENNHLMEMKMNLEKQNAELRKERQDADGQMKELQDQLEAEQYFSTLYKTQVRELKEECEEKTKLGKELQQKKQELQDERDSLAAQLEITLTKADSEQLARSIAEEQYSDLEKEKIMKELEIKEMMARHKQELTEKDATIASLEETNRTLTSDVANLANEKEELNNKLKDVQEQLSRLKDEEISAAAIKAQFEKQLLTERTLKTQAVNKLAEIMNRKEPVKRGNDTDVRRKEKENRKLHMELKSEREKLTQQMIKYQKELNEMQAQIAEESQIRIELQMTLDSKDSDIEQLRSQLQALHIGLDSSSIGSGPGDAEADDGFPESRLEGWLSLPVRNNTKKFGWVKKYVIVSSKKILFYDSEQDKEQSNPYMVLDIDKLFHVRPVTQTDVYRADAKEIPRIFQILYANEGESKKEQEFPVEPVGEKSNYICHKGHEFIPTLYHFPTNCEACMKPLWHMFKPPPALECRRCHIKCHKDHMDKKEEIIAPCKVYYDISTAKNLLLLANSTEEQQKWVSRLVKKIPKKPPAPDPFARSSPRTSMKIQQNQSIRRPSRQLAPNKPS
T2 sequence (Q62868 11-550 limits assumed): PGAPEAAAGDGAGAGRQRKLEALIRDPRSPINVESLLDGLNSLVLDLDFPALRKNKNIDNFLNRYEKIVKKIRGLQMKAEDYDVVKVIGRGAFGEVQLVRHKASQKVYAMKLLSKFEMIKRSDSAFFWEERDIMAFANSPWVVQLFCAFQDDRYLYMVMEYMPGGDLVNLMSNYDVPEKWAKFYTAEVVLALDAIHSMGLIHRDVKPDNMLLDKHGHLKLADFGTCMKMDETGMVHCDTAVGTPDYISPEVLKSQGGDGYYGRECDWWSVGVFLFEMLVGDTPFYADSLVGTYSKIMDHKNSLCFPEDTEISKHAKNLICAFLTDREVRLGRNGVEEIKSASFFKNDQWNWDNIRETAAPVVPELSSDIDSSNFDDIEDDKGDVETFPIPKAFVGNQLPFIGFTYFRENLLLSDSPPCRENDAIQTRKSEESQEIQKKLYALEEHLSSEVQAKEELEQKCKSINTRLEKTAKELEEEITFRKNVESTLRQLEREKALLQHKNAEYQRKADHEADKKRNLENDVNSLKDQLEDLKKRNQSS

Q: Which results are given for “(R)-trans-4-(But-3′-en-1′-amino)-N-(4″-pyridyl)cyclohexane Carboxamide Dihydrochloride [BA-1016]”?
A: distances of axon growth [1]: exceeded 500 um; axon regeneration after optic nerve injury (FIG. 5) ([1]; Dihydrochloride): can promote axon regeneration; also recorded: RGC axons were observed; IC50 [2]: 1.9 µM; inhibition of ROCKII activity (FIG. 3) (ROCK II): inhibition of ROCKII activity
